Data on eight molecules can be found in ChEMBL document CHEMBL4808208, “Hepatoselective Dihydroquinolizinone Bis-acids for HBsAg mRNA Degradation” (ACS Med Chem Lett, 2021).

One data set concerns OATP1B3. In words: Ratio of drug uptake in HEK293 cells transfected with OATP1B3 (unknown origin) in absence of transporter inhibitor, estradiol-17beta-glucuronide to drug uptake in HEK293 cells in absence of transporter inhibitor, estradiol-17beta-glucuronide by LC-MS/MS analysis. In kind it is ADME, cell-based. Particulars: human, HEK293 cells transfected with OATP1B3 versus HEK293 cells.

A short description of data set [1]: Cytotoxicity against human HepG2.2.15 cells assessed as reduction in cell viability measured after 4 days by CellTiter-Glo reagent based assay. The settings on record: time 4 day. The arrangement: species or system HepG2 2.2.15. On the technique in general: ATP-based viability assays read luminescence as a measure of living cells.
For data set [2], the target named is T1, Solute carrier organic anion transporter family member 1B1 (Homo sapiens, UniProt Q9Y6L6).
T1 sequence (Q9Y6L6 whole entry): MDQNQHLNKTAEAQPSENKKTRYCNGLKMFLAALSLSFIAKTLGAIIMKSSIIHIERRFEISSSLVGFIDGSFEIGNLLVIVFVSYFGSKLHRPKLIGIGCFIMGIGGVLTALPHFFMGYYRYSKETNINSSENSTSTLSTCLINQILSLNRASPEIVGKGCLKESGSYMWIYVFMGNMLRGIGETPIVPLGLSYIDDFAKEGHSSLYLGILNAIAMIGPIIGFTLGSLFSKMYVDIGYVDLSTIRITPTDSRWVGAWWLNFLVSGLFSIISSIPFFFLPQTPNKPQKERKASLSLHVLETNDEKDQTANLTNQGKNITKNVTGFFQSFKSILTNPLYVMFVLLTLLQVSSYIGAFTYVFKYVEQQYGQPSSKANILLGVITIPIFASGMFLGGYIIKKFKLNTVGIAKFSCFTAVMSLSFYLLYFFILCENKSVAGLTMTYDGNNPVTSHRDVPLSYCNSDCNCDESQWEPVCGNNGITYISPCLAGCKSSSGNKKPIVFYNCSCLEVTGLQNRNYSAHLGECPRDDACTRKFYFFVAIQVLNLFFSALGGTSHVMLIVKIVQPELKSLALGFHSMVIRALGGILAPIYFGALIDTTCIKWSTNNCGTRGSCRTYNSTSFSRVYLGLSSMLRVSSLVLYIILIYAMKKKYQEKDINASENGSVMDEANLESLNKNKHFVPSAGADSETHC
Put plainly: Substrate activity at OATP1B1 (unknown origin) expressed in HEK293 cells assessed as ratio of drug uptake in absence of transporter inhibitor,estradiol-17beta-glucuronide to drug uptake in presence of transporter inhibitor, estradiol-17beta-glucuronide by LC-MS/MS analysis. In kind it is ADME, cell-based.

A short description of data set [3]: Apparent permeability across apical to basolateral side in MDCK-MDR1 cells at 1 uM measured after 120 mins by LC-MS/MS analysis. The format is ADME, cell-based, Canis lupus familiaris. Particulars: dog.
Data set [4] relates to Hepatitis B virus. Put plainly: Antiviral activity against Hepatitis B virus infected in human HepG2.2.15 cells assessed as reduction in HBV pregenomic mRNA level at 1 uM measured after 5 days by Northern blot analysis. In kind it is functional, organism-based. Particulars: time 5.0 day.
Data set [5] in a line: 1-Octanol/saturated PBS buffer distribution coefficient, logD of the compound incubated for 1 hr by LC-MS/MS analysis. In kind it is physicochemical.
Data set [6] has as its system Hepatitis B virus. Put plainly: Antiviral activity against Hepatitis B virus infected in human HepG2.2.15 cells assessed as reduction in HBV subgenomic 2.4/2.1 kb mRNA level at 1 uM measured after 5 days by Northern blot analysis. Particulars: time 5.0 day. In kind it is functional, organism-based.
Data set [7] in a line: Apparent permeability across basolateral to apical side in MDCK-MDR1 cells at 1 uM measured after 120 mins by LC-MS/MS analysis. In kind it is ADME, cell-based, Canis lupus familiaris. Particulars: dog.
The test system of another data set is OATP1B1. Put plainly: Ratio of drug uptake in HEK293 cells transfected with OATP1B1 (unknown origin) in absence of transporter inhibitor, estradiol-17beta-glucuronide to drug uptake in HEK293 cells in absence of transporter inhibitor, estradiol-17beta-glucuronide by LC-MS/MS analysis. The format is ADME, cell-based. The settings on record: human, HEK293 cells transfected with OATP1B1 versus HEK293 cells.

For data set [8], the target named is Terminal nucleotidyltransferase 4A (Homo sapiens) (UniProt Q5XG87). Put plainly: Inhibition of human PAPD7 expressed in HEK293 cells assessed as inhibition of poly-adenylation reaction using P32-labeled RNA oligonucleotides (5'-GCCUUUCAUCUCUAACUGCGAAAAAAAAAA-3') as substrate measured for 3 hrs by phosphor imaging analysis. In kind it is cell-based. Particulars: dose 0.37-10 µM.

Data set [9] concerns the target Terminal nucleotidyltransferase 4B (Homo sapiens) (UniProt Q8NDF8). In words: Inhibition of Myc-DDK-tagged human PAPD5 expressed in HEK293 cells assessed as inhibition of poly-adenylation reaction using P32-labeled RNA oligonucleotides (5'-GCCUUUCAUCUCUAACUGCGAAAAAAAAAA-3') as substrate measured for 20 mins by phosphor imaging analysis. The settings on record: dose 0.37-10 µM.

The test system of data set [10] is Hepatitis B virus. Put plainly: Antiviral activity against Hepatitis B virus infected in human HepG2.2.15 cells assessed as reduction in HBsAg level measured after 4 days by AlphaLisa assay. In kind it is functional, organism-based. The settings on record: HepG2.2.15, 96 h. In general terms: Alpha assays give light when donor and acceptor beads are brought close together.

Data set [11] addresses T2, Solute carrier organic anion transporter family member 1B3 (Homo sapiens, UniProt Q9NPD5).
T2 sequence (Q9NPD5 whole entry): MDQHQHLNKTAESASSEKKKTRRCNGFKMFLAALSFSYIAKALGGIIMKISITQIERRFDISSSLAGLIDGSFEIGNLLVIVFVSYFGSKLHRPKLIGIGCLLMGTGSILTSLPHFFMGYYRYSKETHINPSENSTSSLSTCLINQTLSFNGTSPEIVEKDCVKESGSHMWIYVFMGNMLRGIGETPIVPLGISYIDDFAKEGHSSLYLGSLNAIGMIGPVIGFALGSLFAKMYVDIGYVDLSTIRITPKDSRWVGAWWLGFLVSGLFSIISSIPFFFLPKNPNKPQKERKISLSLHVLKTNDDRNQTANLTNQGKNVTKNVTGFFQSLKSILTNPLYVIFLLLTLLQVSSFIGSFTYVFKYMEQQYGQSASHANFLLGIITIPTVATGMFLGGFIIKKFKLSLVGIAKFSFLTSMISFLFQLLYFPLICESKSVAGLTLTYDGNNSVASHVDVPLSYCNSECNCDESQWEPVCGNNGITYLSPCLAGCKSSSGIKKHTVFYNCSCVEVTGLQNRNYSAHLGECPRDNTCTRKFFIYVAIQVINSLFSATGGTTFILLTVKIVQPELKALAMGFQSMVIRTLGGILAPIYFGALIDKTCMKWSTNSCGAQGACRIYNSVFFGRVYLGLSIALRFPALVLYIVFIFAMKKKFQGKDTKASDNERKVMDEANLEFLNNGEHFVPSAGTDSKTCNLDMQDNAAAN
In words: Substrate activity at OATP1B3 (unknown origin) expressed in HEK293 cells assessed as ratio of drug uptake in absence of transporter inhibitor, estradiol-17beta-glucuronide to drug uptake in presence of transporter inhibitor, estradiol-17beta-glucuronide by LC-MS/MS analysis. The format is ADME, cell-based.

Data set [12] is described as follows: Efflux ratio of apparent permeability in MDCK-MDR1 cells at 1 uM after 120 mins by LC-MS/MS analysis. In kind it is ADME, cell-based, Canis lupus familiaris. The settings on record: dog.

SMILES strings stand for the structures. Calls of active or inactive are those of the source. The rule behind the calls is not given here. A value given as a limit tells only on which side of the number the result lay.

Terminal nucleotidyltransferase 4B (Homo sapiens), sequence (Q8NDF8 whole entry): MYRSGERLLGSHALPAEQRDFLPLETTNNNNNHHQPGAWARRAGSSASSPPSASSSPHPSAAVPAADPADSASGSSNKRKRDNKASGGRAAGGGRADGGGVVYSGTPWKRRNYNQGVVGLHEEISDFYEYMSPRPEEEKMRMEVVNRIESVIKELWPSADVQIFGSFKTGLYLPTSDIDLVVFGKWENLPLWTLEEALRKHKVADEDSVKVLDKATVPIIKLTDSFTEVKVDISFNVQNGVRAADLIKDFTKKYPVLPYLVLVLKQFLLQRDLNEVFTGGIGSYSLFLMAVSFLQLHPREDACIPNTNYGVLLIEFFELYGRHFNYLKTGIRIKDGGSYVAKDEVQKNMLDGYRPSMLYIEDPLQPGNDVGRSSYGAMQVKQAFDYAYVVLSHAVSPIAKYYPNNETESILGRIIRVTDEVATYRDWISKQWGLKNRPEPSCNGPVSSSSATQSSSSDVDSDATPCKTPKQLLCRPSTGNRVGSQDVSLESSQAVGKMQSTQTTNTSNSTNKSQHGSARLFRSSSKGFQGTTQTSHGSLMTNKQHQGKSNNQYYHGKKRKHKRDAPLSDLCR
Terminal nucleotidyltransferase 4A (Homo sapiens), sequence (Q5XG87 whole entry): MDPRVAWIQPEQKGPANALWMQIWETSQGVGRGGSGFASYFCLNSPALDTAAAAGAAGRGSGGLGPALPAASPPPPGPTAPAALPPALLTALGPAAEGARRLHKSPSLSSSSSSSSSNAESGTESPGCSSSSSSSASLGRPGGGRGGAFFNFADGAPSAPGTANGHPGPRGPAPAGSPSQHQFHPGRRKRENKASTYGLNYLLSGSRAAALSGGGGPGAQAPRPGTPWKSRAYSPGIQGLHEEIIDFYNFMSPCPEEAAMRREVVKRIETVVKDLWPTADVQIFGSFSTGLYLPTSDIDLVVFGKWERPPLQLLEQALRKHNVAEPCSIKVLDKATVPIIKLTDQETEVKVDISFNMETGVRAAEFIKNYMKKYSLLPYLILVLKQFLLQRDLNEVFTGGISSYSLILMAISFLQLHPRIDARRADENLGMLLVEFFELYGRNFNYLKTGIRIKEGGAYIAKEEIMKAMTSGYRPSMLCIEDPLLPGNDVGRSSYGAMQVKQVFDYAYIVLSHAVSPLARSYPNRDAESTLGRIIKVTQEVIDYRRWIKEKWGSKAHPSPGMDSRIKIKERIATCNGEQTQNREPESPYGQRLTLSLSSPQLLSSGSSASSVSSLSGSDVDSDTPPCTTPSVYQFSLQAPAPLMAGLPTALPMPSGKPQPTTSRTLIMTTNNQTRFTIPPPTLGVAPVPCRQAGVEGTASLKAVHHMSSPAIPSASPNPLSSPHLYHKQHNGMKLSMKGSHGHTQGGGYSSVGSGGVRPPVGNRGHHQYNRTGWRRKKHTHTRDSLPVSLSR

A word on the CC50: it is the concentration giving 50% cytotoxicity. As a reminder, the Papp A→B is the apparent permeability from the apical to the basolateral side of a cell layer. As a reminder, the logD is lipophilicity at a set pH, counting ionised and neutral species. By Papp B→A is commonly meant the apparent permeability from the basolateral to the apical side of a cell layer. As usually defined, the EC50 is the concentration needed to bring the measured effect to its halfway point. Usually efflux ratio stands for a quotient of directional permeabilities that is used to spot active efflux. `COCCCOc1cc2c(cc1OC)-c1cc(=O)c(C(=O)O)cn1[C@H](C(C)C)C2`: the uptake ratio in the data set on OATP1B3 is 0.56; with OATP1B1, 0.71. The CC50 at 96 h in data set [1] is above 10000 nM. In addition, the Ratio was found to be 0.38 in [2] and 0.42 in data set [11]. Also, the Papp A→B at 2 h, 1 µM in data set [3] was determined as 9.17 ×10⁻⁶ cm/s. Further, the outcome in the data set with Hepatitis B virus [4] and with Hepatitis B virus [6] was Active. Besides, the logD at 1 h in data set [5] is 1.39. The Papp B→A at 2 h, 1 µM in [7] was found to be 35.8 ×10⁻⁶ cm/s. Further, the inhibition result in data set [8] and in data set [9] was “Dose-Dependent Effect” throughout. In addition, the EC50 with Hepatitis B virus [10] stood at 1.8 nM. Further, in [12], the efflux ratio at 2 h, 1 µM was found to be 3.9.

As for `COc1cc2c(cc1OCCCCCC(=O)O)C[C@@H](C(C)C)n1cc(C(=O)O)c(=O)cc1-2`, in data set [1], the CC50 at 96 h is above 10000 nM. Moreover, the EC50 in the data set with Hepatitis B virus [10] is 87 nM.

As for `COc1cc2c(cc1OCCCCCCCC(=O)O)C[C@@H](C(C)C)n1cc(C(=O)O)c(=O)cc1-2`, the CC50 at 96 h in data set [1] was above 10000 nM. The molecule also returned a logD at 1 h in data set [5] of 0.07. Besides, the EC50 with Hepatitis B virus [10] was found to be 7.6 nM.

With `COc1cc2c(cc1OCCCCC(=O)O)C[C@@H](C(C)C)n1cc(C(=O)O)c(=O)cc1-2`, the CC50 at 96 h in [1] was above 10000 nM. In the data set on Hepatitis B virus [10], the concentration for a half-maximal effect (EC50) worked out at 380 nM.

`COc1cc2c(cc1OCCCC(=O)O)C[C@@H](C(C)C)n1cc(C(=O)O)c(=O)cc1-2`: the CC50 at 96 h in data set [1] is above 10000 nM. Moreover, the EC50 with Hepatitis B virus [10] turned out to be 1010 nM.

For `COc1cc2c(cc1OCCCOCC(=O)O)C[C@@H](C(C)C)n1cc(C(=O)O)c(=O)cc1-2`, the CC50 at 96 h in [1] is above 10000 nM. Moreover, in the data set with Hepatitis B virus [10], the EC50 was 2780 nM.

Turning to `COc1cc2c(cc1OCCCCCCCCC(=O)O)C[C@@H](C(C)C)n1cc(C(=O)O)c(=O)cc1-2`, the CC50 at 96 h in data set [1] is above 10000 nM. Further, the logD at 1 h in [5] came out at 0.7. For the same molecule, the EC50 in the data set with Hepatitis B virus [10] was 4.6 nM.

With `COc1cc2c(cc1OCC(=O)O)C[C@@H](C(C)C)n1cc(C(=O)O)c(=O)cc1-2`, in data set [1], the CC50 at 96 h is above 10000 nM. In addition, in the data set on Hepatitis B virus [10], the EC50 was above 10000 nM.
